The test system of the assay is CEM cells HIV-1 protection, formazan growth assay. Kind of assay: NCI AIDS Antiviral Assay. The note with it: for IC50: measured here: growth of uninfected CEM cells. An outline of the steps:
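Soluble formazan readout of cell growth; CEM cells ± HIV-1; 5 drug concs. ≥50% protection → retest; ≥50% again = moderately active; reproducible 100% = confirmed active.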

The source made the active and inactive calls.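 How the source made its calls: active means compounds giving half or more protection of infected cells from virus-caused growth loss, again on retest; inactive means the rest.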 Bounds are passed on as bounds.

This note sets out measurements from PubChem BioAssay AID179 (DTP/NCI, 2004).

As to `C=CCCCCCCCCC/C=C1\C[C@H](O)COC1=O`, the EC50 was above 93.3 µM and the IC50 is above 93.3 µM.
As to `CCC1(OC(C)=O)C(=O)OCc2c1cc1n(c2=O)Cc2cc3ccccc3nc2-1` (configuration not stated), the EC50 is above 10 µM and the IC50 came out at 0.129 µM.
With `C=C(Cc1ccc(O)cc1)C(=C)Cc1ccc(O)cc1`, the EC50 was above 200 µM and the IC50 was 69.2 µM.
On to `CC[C@@]12CCC(=O)N3CCC4(C(=C(C(=O)OC)C1)Nc1ccccc14)[C@H]32` (some centres not stated), for which the EC50 was above 269 µM and the IC50 stood at 15.5 µM.
For the compound `Cc1ccc(C)c(NC(=O)CCC(=O)CC(=O)C(C)(C)C)c1`, the result was inactive.
Regarding `CC1=C(O)C(=O)C2C(=O)C1C1Cc3ccccc3C21` (configuration not stated), the EC50 was above 513 µM and the IC50 is above 513 µM.
As to `c1ccc(N2CCN(c3ccccc3)C2)cc1`, the EC50 is above 200 µM and the IC50 is above 200 µM.
In the case of `CCOC(=O)c1ccc(CS(=O)c2ccc(N)cc2)c([N+](=O)[O-])c1` (configuration not stated), the EC50 is above 102 µM and the IC50 worked out at 26.9 µM.
Turning to `CC(C)N(CCn1c2c3ccccc3ccc2c2oc(=O)c3ccccc3c21)C(C)C`, the EC50 was above 22.4 µM and the IC50 was above 22.4 µM.
For the compound `C[n+]1c(/C=C/c2ccc(/C=N/NC(=O)c3ccc(C(=O)N/N=C/c4ccc(/C=C/c5cn6ccccc6[n+]5C)cc4)cc3)cc2)cn2ccccc21`, the EC50 was above 3.55 µM and the IC50 is above 3.55 µM.
Turning to `COC(=O)C1=C(\c2ccccc2)c2ccccc2C(=O)N(C2CCCCC2)/C=C\1`, the EC50 is above 200 µM and the IC50 came out at 25.7 µM.
In the same order, the values of `CCOC(=O)CCC(NC(=O)c1ccc(N2CCN(c3c(C)nc(N)nc3N)CC2)cc1)C(=O)OCC` (configuration not stated) are above 0.2 µM and 0.0427 µM.
On to `COc1cc(C(=O)CC2(O)C(=O)Nc3c(Cl)cc(Cl)cc32)ccc1O` (configuration not stated), for which the EC50 is above 468 µM and the IC50 was found to be 91.2 µM.
With `C=CCOC(=O)Cn1cnc2c(N)ncnc21`, the EC50 was above 200 µM and the IC50 is above 200 µM.
Regarding `COC(=O)C1=C(O)C(C(=O)OC)[C@@]2(O)[C@@H](C(=O)OC)CC[C@@H]1[C@@H]2C(=O)OC` (some centres not stated), the EC50 is above 200 µM and the IC50 turned out to be 38.9 µM.
For `O=C(O)c1ccccc1C(=O)Nn1cnnc1` the same measures were above 200 µM and above 200 µM.
Turning to `c1ccc2c3ccn4ccc5c6ccccc6[nH]c5c4c-3nc2c1`, the EC50 is above 10 µM and the IC50 worked out at 0.513 µM.
Regarding `CCC1=CCC23C(=O)C=CC(=O)C2(C1)C(=O)c1cccc(OC)c1C3=O` (configuration not stated), the EC50 was above 20 µM and the IC50 turned out to be 1.05 µM.
On to `CN(C)CCNC(=O)Cn1cc([N+](=O)[O-])c(=O)c2ccccc21`, for which the EC50 was above 200 µM and the IC50 is above 200 µM.
Consider `CC1(C)CC(=O)C2=C(C1)Nc1ccc(Cl)cc1NC2c1cccc([N+](=O)[O-])c1` (configuration not stated), for which the EC50 is above 200 µM and the concentration for half-maximal inhibition (IC50) is 102 µM.
For `CCC1C(c2ccccc2)=CCC(C(=O)O)C1C` (configuration not stated), the EC50 is above 200 µM and the IC50 is above 200 µM.
Regarding `COc1ccc([N+](=O)[O-])c2c(NCCC[N+](C)(C)[O-])c3ccccc3nc12`, the EC50 is above 200 µM and the IC50 was found to be 3.09 µM.
As to `Cc1cc(C)nc(NC(=S)Nc2cccc(Cl)c2)c1`, the EC50 was above 200 µM and the concentration for half-maximal inhibition (IC50) was determined as 27.5 µM.
Take `COc1ccc2c(c1OC)C(=O)c1cnccc1C2=O`: the EC50 was 60.3 µM and the IC50 was 132 µM.
For the compound `CCn1c(=O)c2c3cc(OC(C)=O)ccc3oc2c2ccc(OC(C)=O)cc21`, the EC50 was above 200 µM and the half-maximal inhibitory concentration (IC50) worked out at 53.7 µM.
In the same order, the values of `CCOP(=S)(NN=C1CCCC1)OCC` are above 200 µM and above 200 µM.
For `Cc1cc(S(=O)(=O)n2ccnc2Oc2cccc(Cl)c2)c(SSc2cc(Cl)c(C)cc2S(=O)(=O)n2ccnc2Oc2cccc(Cl)c2)cc1Cl`, the EC50 is 8.13 µM and the IC50 was determined as 13.8 µM.
As for `O=c1cc2c(=O)oc3cc(O)c(O)oc3c2c(O)c1O`, the EC50 was above 324 µM and the IC50 stood at 13.8 µM.
Take `Cc1nnc2c3nccnc3c(N)nn12`: the EC50 is above 200 µM and the IC50 is above 200 µM.
As to `O=C(O)CCCc1ccc(N(CCCl)CCCl)cc1`, the EC50 was above 200 µM and the half-inhibitory concentration (IC50) worked out at 14.8 µM.
Take `CC(C)(C)/C(O)=C\c1nc2ccc(C(F)(F)F)cc2[nH]c1=O`: the EC50 was above 200 µM and the IC50 is above 200 µM.
As for `CC(=O)c1c2c(cc3c1CC1(Cc4cc5c(cc4C1)CCC5)C3)CCC2`, the EC50 is above 200 µM and the IC50 is above 200 µM.
Regarding `[N-]=[N+]=C1C(=O)NC(=O)N2C3CC(O)C(COC12)O3` (configuration not stated), the EC50 is above 200 µM and the IC50 is above 200 µM.
`CC(=O)n1c2ccccc2c2nc3nc(Oc4ccc(C)cc4)c4ccccc4c3cc21`: the EC50 is above 6.61 µM and the IC50 was above 6.61 µM.
Consider `COC(=O)/C=C/N1CC1`, for which the EC50 was above 200 µM and the IC50 was above 200 µM.
As for `CCOC(=O)c1c[nH]c2ccc3c(c2c1=O)S(=O)(=O)CC3` (tested in a mixture with another compound), the outcome was inactive.
As for `CC(=O)OC1CCC2(C)C(C1)CC(OC(C)=O)C1C2CC(OC(C)=O)C2(C)C(C(C)CC(=O)C(=O)c3ccccc3)CCC12` (configuration not stated), the EC50 was above 6.17 µM and the IC50 is 2.63 µM.
As for `CCN(CC)CCCNc1ccc([N+](=O)[O-])c2nc3ccccc3c(N)c12`, the EC50 was above 200 µM and the IC50 stood at 0.214 µM.
Take `O=C(N/N=C/c1ccccn1)c1ccccc1[O-].O=C(N/N=C/c1ccccn1)c1ccccc1[O-].[Mn+2]`: the EC50 is above 200 µM and the IC50 stood at 11.2 µM.
As for `O=C1c2c(O)cc(O)cc2O[C@@]12c1c(cc(O)c3c1O[C@H](c1ccc(O)cc1)[C@@H](O)C3)O[C@@H]2c1ccc(O)cc1`, the EC50 was 2.57 µM and the IC50 was determined as 50.1 µM.
For `O=C1OC2OC3OC(=O)C4C3CC2C14` (configuration not stated) the same measures were above 257 µM and above 257 µM.
Turning to `CC(C)N(C(=O)C12C3C4C1C1C2C3C41C(=O)C(C)(C)C)C(C)C` (configuration not stated), the EC50 was above 158 µM and the IC50 is 138 µM.
For `CC(O)CC[P+](c1ccccc1)(c1ccccc1)c1ccccc1` (configuration not stated), the EC50 is above 200 µM and the IC50 worked out at 4.27 µM.
For `Cn1c(=O)c2[nH]c(Nc3ccccc3)nc2n(C)c1=O` the same measures were above 200 µM and 120 µM.
With `CC(=O)C(SSC(C(C)=O)C(C)=O)C(C)=O`, the EC50 was above 200 µM and the IC50 amounted to 8.51 µM.
`O=C1C2CCC(N1c1ccc(F)cc1)n1c(=O)n(-c3ccccc3)c(=O)n12` (configuration not stated): the result was inactive.
`C/C(=N/NC(N)=S)C(CN1CCOCC1)C(C1=C(O)c2ccccc2OC1)c1ccccc1` (configuration not stated): the EC50 is above 37.2 µM and the IC50 was above 37.2 µM.
On to `COC(=O)N/N=C(\C(=O)Nc1cccc([N+](=O)[O-])c1)c1nc2ccc([N+](=O)[O-])cc2[nH]c1=O`, for which the EC50 was above 148 µM and the IC50 was above 148 µM.
For `COc1ccc(/C=C/C(=O)c2ccccc(=O)c2O)cc1`, the EC50 is above 63.1 µM and the IC50 was 3.39 µM.
Consider `COC(=O)c1nc2[nH]n(-c3ccccc3)c(=O)c2c2c1CCCCCCCCCC2`, for which the EC50 was above 123 µM and the IC50 was 115 µM.
In the case of `O=[N+]([O-])C(C=Nc1ccccc1)C=Nc1ccccc1` (configuration not stated), the EC50 was above 200 µM and the IC50 worked out at 107 µM.
Regarding `COc1ccc(C=C(C(=O)O)C(=O)O)cc1`, the EC50 is above 1120 µM and the 50% inhibitory concentration (IC50) was above 1120 µM.
For `O=C(NN1C(=O)C(Cl)C1c1ccc([N+](=O)[O-])cc1)c1ccccc1O` (configuration not stated), the EC50 was above 10.5 µM and the IC50 was above 10.5 µM.
For `C[N+](C)(C)C.[C-]#[O+].[C-]#[O+].[C-]#[O+].[C-]#[O+].[Cr].c1ccc(N=N[N-]c2ccccc2)cc1`, the EC50 was above 1.26 µM and the IC50 is above 1.26 µM.
Take `O=[N+]([O-])c1ccc(/C=[N+](\[O-])CCO)o1`: the EC50 was above 200 µM and the IC50 was found to be 30.9 µM.
Take `CC12CCC(C(Br)C1=O)C2(C)CBr` (configuration not stated): the outcome was inactive.
`CC(=O)Nc1ccc(/C=N\N2C(=O)c3ccccc3C2=O)cc1`: the EC50 is above 61.7 µM and the IC50 is above 61.7 µM.
`NC(=O)c1c(N)ncn1C1OC(CO)C(F)C1O` (configuration not stated): the EC50 was above 200 µM and the IC50 is above 200 µM.
In the case of `Cc1cc(O)c2c(c1)C(C1OC(CO)C(O)C(O)C1O)c1cc(O)cc(O)c1C2=O` (configuration not stated), the EC50 was above 200 µM and the IC50 is above 200 µM.
As for `CN(/N=C/c1ccccn1)C1=NCCCCN1`, the EC50 is above 200 µM and the IC50 is above 200 µM.
In the case of `CSc1nc(=O)n(CCC#N)nc1SC`, the EC50 was above 200 µM and the IC50 stood at 29.5 µM.
`O=c1c2cccc3cccc(c4oc5c6cccc7cccc(c(=O)c5c14)c76)c32`: the outcome was inactive.
With `NCCCNCCS`, the EC50 is above 589 µM and the IC50 was found to be 30.2 µM.
Regarding `CCO/C=N\C1=C(C#N)SC2=N/C(=C\c3ccc(OC)cc3)C(=O)N21`, the EC50 is above 200 µM and the IC50 was above 200 µM.
Take `CN(N=O)C(=O)NC(CCCCNC(=O)OCc1ccccc1)C(=O)OCc1ccccc1` (configuration not stated): the EC50 was above 21.9 µM and the concentration for half-maximal inhibition (IC50) is above 21.9 µM.
In the case of `Clc1ccccc1-c1nn2c(CCCCCCCCc3nnc4sc(-c5ccccc5Cl)nn34)nnc2s1`, the EC50 was above 200 µM and the IC50 stood at 105 µM.
Regarding `N#CCCN(C1=NN(C(=O)CC(=O)Nc2cccc(Cl)c2)C(c2ccccc2)C1)c1ccccc1Cl` (configuration not stated), the EC50 was above 69.2 µM and the IC50 is above 69.2 µM.
In the case of `CCOC(=O)C(=O)Nc1ccc(Cl)cc1C`, the EC50 is above 389 µM and the IC50 is 331 µM.
As for `CCCCNC1CCCCC[C@H]1O` (some centres not stated), the EC50 is above 1120 µM and the IC50 is above 1120 µM.
On to `CCCCCCCCCCCCCCCc1nc(SCC(=O)O)n[nH]1`, for which the EC50 is above 3.89 µM and the IC50 was above 3.89 µM.
Take `CCOC(=O)c1c(-c2cc(OC)c(OC)c(OC)c2)csc1NC(=O)c1ccccc1`: the EC50 was above 200 µM and the IC50 worked out at 12.6 µM.
